A word on the CC50: it is the concentration that lowers cell viability or growth by half. As a reminder, the EC50 is the concentration at which the effect is half-maximal.

In data set [1] the test system is Hepatovirus A. As to the kind of experiment: Antiviral activity against hepatitis A virus genotype 1b infected in human Huh-7.5.1 cells assessed as reduction in virus production at 10 uM incubated for 72 hrs by Nano-Glo luciferase assay. The format is functional, organism-based.
The next data set deals with Huh7.5.1. As to the kind of experiment: Cytotoxicity in human Huh-7.5.1 cells assessed as reduction in cell viability at 10 uM incubated for 72 hrs by CellTiter-Glo luminescent cell viability assay. It counts as toxicity, cell-based. Conditions: huh7.5.1, 72 h. In general terms: In ATP-based viability assays light output follows the ATP content of the culture.
The test system of data set [2] is Hepatovirus A. As to the kind of experiment: Antiviral activity against hepatitis A virus HM175/18f infected in human Huh-7.5.1 cells assessed as reduction in HM175 production at 2 to 50 uM incubated for 72 hrs by RT-qPCR method. The format is functional, organism-based. Particulars: dose 2-50 µM, DDE = dose-dependent effect.
Data set [3] is described as follows: Cytotoxicity in human Huh-7.5.1 cells assessed as reduction in cell viability incubated for 72 hrs by CellTiter-Glo luminescent cell viability assay. The format is toxicity, cell-based, Huh7.5.1.
Data set [4] in a line: Selectivity index, ratio of CC50 for Cytotoxicity in human Huh-7.5.1 cells to EC50 for Antiviral activity against hepatitis A virus genotype 1b infected in human Huh-7.5.1 cells. It counts as toxicity, cell-based. Particulars: read-out: Ratio CC50/EC50.
For data set [5], the system named is Hepatovirus A. Description: Antiviral activity against hepatitis A virus TICM005 infected in human Huh-7.5.1 cells assessed as reduction in cytoplasmic viral RNA level at 5 to 20 uM incubated for 72 hrs dosed after infection for 6 hrs by RT-qPCR method. It counts as functional, organism-based. Conditions: TICM005, Huh-7.5.1. In general terms: In qPCR the cycle at which signal appears reflects the starting amount.

Data set [6] deals with Hepatovirus A. Description: Antiviral activity against hepatitis A virus infected in human Huh-7.5.1 cells assessed as reduction in viral RNA replication at 2 to 50 uM incubated for 72 hrs by luciferase reporter dependent subgenomic replicon assay. The format is functional. Particulars: dose 2-50 µM. (In general: Reporter assays use an easily measured gene product as a stand-in for the process of interest.)

Data set [7] relates to Hepatovirus A. As to the kind of experiment: Antiviral activity against hepatitis A virus HM175 infected in human Huh-7.5.1 cells assessed as reduction in HAV2c Protein expression at 10 uM incubated for 48 hrs by immunofluorescence assay. The format is functional, organism-based.
Data set [8] deals with Hepatovirus A. As to the kind of experiment: Antiviral activity against hepatitis A virus genotype 1b infected in human Huh-7.5.1 cells assessed as reduction in virus production at 10 uM incubated for 72 hrs after 6 hrs HAV/NLuc infection by Nano-Glo luciferase assay. It counts as functional, organism-based.
In data set [9] the test system is Hepatovirus A. As to the kind of experiment: Antiviral activity against hepatitis A virus genotype 1b infected in human Huh-7.5.1 cells assessed as reduction in virus production incubated for 72 hrs by Nano-Glo luciferase assay. It counts as functional, organism-based. Conditions: for Activity: DDE = dose-dependent effect; for EC50: Huh-7.5.1, 72 h.
The test system of data set [10] is Hepatovirus A. As to the kind of experiment: Antiviral activity against hepatitis A virus KRM031 infected in human Huh-7.5.1 cells assessed as reduction in cytoplasmic viral RNA level at 5 to 20 uM incubated for 72 hrs dosed after infection for 6 hrs by RT-qPCR method. The format is functional, organism-based. Conditions: KRM031, Huh-7.5.1.

Active and inactive are the calls of the source. The rule behind the calls is not given here. A value given as a limit tells only on which side of the number the result lay.

In the case of `COc1cc(OCC(=O)N/N=C/c2ccc(Cl)c(O)c2)cc2c1CCC(c1cc(OC)c(OC)c(OC)c1)O2` (stereo unspecified), in the data set with Hepatovirus A [1], the result was Active. In addition, the Activity result with Huh7.5.1 is “Toxic”.

On to `COc1cc(OCC(=O)N/N=C/c2ccc(C)cc2)cc2c1CCC(c1cc(OC)c(OC)c(OC)c1)O2` (stereo unspecified), for which the inhibition entry in the data set on Hepatovirus A [2] was “Dde”. Besides, the CC50 at 72 h in [3] was determined as 103 µM. Further, the selectivity ratio in data set [4] was 11.1. Besides, the result in the data set with Hepatovirus A [1] and in the data set on Hepatovirus A [7] was Active. Besides, the Activity entry is “Non-Toxic” in the data set on Huh7.5.1 and “Dde” in the data set with Hepatovirus A [9]. Also, the EC50 in the data set on Hepatovirus A [5] was greater than 20 µM; in the data set on Hepatovirus A [9], 9.3 µM; with Hepatovirus A [10] it was greater than 20 µM. In the data set on Hepatovirus A [6], the “inhibition (INH)” value is listed as 56.4%. Moreover, in the data set on Hepatovirus A [8], the inhibition entry was “Active”.

As for `COc1cc(OCC(=O)N/N=C/c2ccc(Cl)c(Cl)c2)cc2c1CCC(c1cc(OC)c(OC)c(OC)c1)O2` (stereo unspecified), the result in the data set on Hepatovirus A [1] was Active. Besides, the Activity entry with Huh7.5.1 was “Toxic”.

Regarding `COc1cc(OCC(=O)N/N=C(\C)c2ccccc2O)cc2c1CCC(c1cc(OC)c(OC)c(OC)c1)O2` (stereo unspecified), in the data set on Hepatovirus A [1], the result was Active. Besides, in the data set on Huh7.5.1, the Activity entry is listed as “Toxic”.

On to `COc1cc(OCC(=O)N/N=C/c2ccc(Cl)s2)cc2c1CCC(c1cc(OC)c(OC)c(OC)c1)O2` (stereo unspecified), for which the inhibition entry in the data set with Hepatovirus A [2] was “Dde”. Moreover, the 50% cytotoxic concentration (CC50) at 72 h in [3] is 83.3 µM. Further, the selectivity ratio in [4] is 15.7. Besides, the result in the data set with Hepatovirus A [1] and with Hepatovirus A [7] was Active. Besides, the Activity entry was “Non-Toxic” in the data set with Huh7.5.1 and “Dde” in the data set on Hepatovirus A [9]. The EC50 turned out to be 11.7 µM in the data set with Hepatovirus A [5], 5.3 µM in the data set on Hepatovirus A [9] and 8.5 µM in the data set with Hepatovirus A [10]. For the same compound, the “inhibition (INH)” value with Hepatovirus A [6] was 98.1%. In the data set on Hepatovirus A [8], the inhibition entry is “Active”.

On to `COc1ccc(/C=N/NC(=O)COc2cc(OC)c3c(c2)OC(c2cc(OC)c(OC)c(OC)c2)CC3)cc1` (stereo unspecified), for which, in the data set with Hepatovirus A [1], the outcome was Active. In the data set with Huh7.5.1, the Activity result is listed as “Toxic”.

With `COc1cc(OCC(=O)N/N=C/c2ccc(Br)cc2)cc2c1CCC(c1cc(OC)c(OC)c(OC)c1)O2` (stereo unspecified), the inhibition result in the data set with Hepatovirus A [2] is “Dde”. The CC50 at 72 h in [3] is 152 µM. In addition, in [4], the selectivity ratio was 25. Moreover, the result in the data set on Hepatovirus A [1] and with Hepatovirus A [7] was Active. The figures for the Activity result with Huh7.5.1 and with Hepatovirus A [9] were “Non-Toxic” and “Dde”, respectively. Also, the concentration for a half-maximal effect (EC50) is greater than 20 µM with Hepatovirus A [5], 6.1 µM in the data set on Hepatovirus A [9] and greater than 20 µM in the data set on Hepatovirus A [10]. For the same compound, in the data set with Hepatovirus A [6], the “inhibition (INH)” value is on record as 93%. The inhibition entry with Hepatovirus A [8] is “Active”.

`COc1cc(OCC(=O)N/N=C/c2ccc(Cl)cc2)cc2c1CCC(c1cc(OC)c(OC)c(OC)c1)O2` (stereo unspecified): the inhibition result in the data set on Hepatovirus A [2] was “Dde”. The CC50 at 72 h in data set [3] was 89.8 µM. In addition, the selectivity ratio in data set [4] worked out at 16.3. Besides, the result in the data set on Hepatovirus A [1] and in the data set on Hepatovirus A [7] was Active. The Activity result is “Non-Toxic” with Huh7.5.1 and “Dde” with Hepatovirus A [9]. For the same compound, the EC50 turned out to be 14.2 µM with Hepatovirus A [5], 5.5 µM with Hepatovirus A [9] and 13.1 µM in the data set with Hepatovirus A [10]. Besides, the “inhibition (INH)” value with Hepatovirus A [6] was determined as 98.3%. For the same compound, in the data set on Hepatovirus A [8], the inhibition result was “Active”.
